Where a SMILES comes first, the peptide text is derived from it. The star is where a group is joined. Cbz = O=C(OCc1ccccc1)*
Columns and labels:
Assay type in all cases: cell-based
[1] = system: AvBD9; test: AvBD9 gene expression in chicken peripheral blood mononuclear cells (PBMCs) (real-time RT-PCR); settings: for Effect on AvBD9 induction, compound alone: without butyrate; for AvBD9 gene expression, maximum fold increase, compound alone: 50 to 250 μM, dose-dependent; for Effect of pathway inhibitor on butyrate-induced AvBD9 expression: 1 h inhibitor pretreatment, then 2 mM sodium butyrate 24 h
Description: (§1) Chicken HD11 macrophage cell line was obtained from USDA-Agricultural Research Services (ARS), and chicken HTC macrophage cell line was secured from USDA-ARS. Both HD11 and HTC macrophage cells were propagated in RPMI 1640 containing 10% fetal bovine serum (FBS), 100 μg/ml streptomycin, and 100 U/ml penicillin. Peripheral blood mononuclear cells (PBMCs) were isolated from EDTA-anticoagulated chicken blood by gradient centrifugation with Histopaque 1077 (Sigma) following manufacturer's instructions. Briefly, chicken blood was overlaid onto Histopaque 1077 (Sigma) at 1:1 ratio, and centrifuged at 400×g for 30 min. Interphase containing PBMCs was aspirated and washed 3 times with PBS at 250×g for 10 min. Cell pellet was re-suspended with RPMI 1640, supplemented with 10% FBS, 100 μg/ml streptomycin, 100 U/ml penicillin, and 20 mM HEPES. After being seeded overnight at 2×10^6/well in 6-well tissue culture plates, cells were treated with different concentrations of chemicals. For signaling studies, cells were pre-treated with different signaling agonists or inhibitors for 1 h, followed by stimulation with sodium butyrate or its structural analogs for another 24 h. Cells were then lysed in RNAzol (Molecular Research Center, Cincinnati, Ohio) for RNA extraction.
(§2) Total RNA was extracted from chicken cells and tissues using RNAzol RT (Molecular Research Center) and quantitated using Nanodrop 1000 (Nanodrop Products, Wilmington, Del.). RNA (0.3 μg) was reverse transcribed in 4-μl reactions using Maxima First Strand cDNA Synthesis Kit (Thermo Fisher Scientific, Pittsburgh, Pa.) according to the manufacturer's instructions. The cDNA was then diluted 10 times with RNase-free water prior to real-time PCR analysis of AvBD9 and GAPDH as were described previously. The primers used for AvBD9 primers were […] (SEQ ID NO: 1, forward) and […] (SEQ ID NO: 2, reverse), whereas the primers for chicken glyceraldehyde-3-phosphate dehydrogenase (GAPDH) were […] (SEQ ID NO: 3, forward) and […] (SEQ ID NO: 4, reverse). QuantiTect SYBR Green PCR Kit (Qiagen, Valencia, Calif.) was used in 10 μl reactions with 4 and 1 μl of diluted cDNA for AvBD9 and GAPDH, respectively. Real-time PCR was performed with an initial activation at 95° C. for 10 min, followed by 40 cycles at 94° C. for 15 sec, 55° C. for 20 sec and 72° C. for 30 sec. Melting curve analysis was carried out to confirm the specificity of PCR amplification. Relative fold change in the AvBD9 gene expression was calculated using the ΔΔCt method normalized against the GAPDH levels.

[2] = system: AvBD9; test: AvBD9 gene expression in chicken HD11 macrophage cells (real-time RT-PCR); settings: for Synergy with butyrate in AvBD9 induction: 2 mM butyrate with 0.2 M sugar, 12 h; for Induction of AvBD9 gene expression by sugars: 0.2 M, up to 48 h; for Induction of AvBD9 gene expression: compound alone, different concentrations; for Efficacy of AvBD9 induction compared with butyrate: 24 h stimulation; for Effect of pathway inhibitor on lactose-induced AvBD9 expression: 1 h inhibitor pretreatment, then 0.2 M lactose 24 h
Description: as §1, §2

[3] = system: AvBD9; test: AvBD9 gene expression in chicken HTC macrophage cells (real-time RT-PCR)
Description: For signaling studies, cells were pre-treated with different signaling agonists or inhibitors for 1 h, followed by stimulation with sodium butyrate or its structural analogs for another 24 h.
(§3) The cDNA was then diluted 10 times with RNase-free water prior to real-time PCR analysis of AvBD9 and GAPDH as were described previously. The primers used for AvBD9 primers were […] (SEQ ID NO: 1, forward) and […] (SEQ ID NO: 2, reverse), whereas the primers for chicken glyceraldehyde-3-phosphate dehydrogenase (GAPDH) were […] (SEQ ID NO: 3, forward) and […] (SEQ ID NO: 4, reverse). QuantiTect SYBR Green PCR Kit (Qiagen, Valencia, Calif.) was used in 10 μl reactions with 4 and 1 μl of diluted cDNA for AvBD9 and GAPDH, respectively.

[4] = system: AvBD9; test: AvBD9 gene expression in chicken peripheral blood mononuclear cells (PBMCs) (real-time RT-PCR); settings: 1 h inhibitor pretreatment, then 10 μM quercetin 24 h
[5] = system: acetyl-histone 4 (Ac-H4); test: Histone 4 acetylation in chicken HD11 cells (immunoblotting, Ac-H4); settings: 2 mM butyrate and/or 0.2 M lactose, 6 h
Description: After stimulation with various compounds, chicken HD11 cells were washed with PBS and lysed in the RIPA lysis buffer (Santa Cruz Biotechnology, Dallas, Tex.). Protein concentration was measured by the Bradford Assay (Bio-Rad, Hercules, Calif.). For the determination of histone 4 acetylation levels, 20 μg of proteins was separated by 12.5% SDS-PAGE gel and then transferred to a PVDF membrane. After overnight blocking in the blocking buffer at 4° C., the membrane was incubated with a primary rabbit antibody against acetyl-histone 4 (Ac-H4) (Cell Signaling, #8647) in the blocking buffer for 1 h at room temperature. After three washes, the membrane was incubated with an alkaline phosphatase-conjugated goat anti-rabbit IgG antibody (Sigma-Aldrich, St. Louis, Mo.) for 45 min at room temperature. Another membrane was prepared in parallel, but incubated with a rabbit antibody against β-Actin (#A2103) to reveal a similar amount of protein loading. The signaling was visualized by incubation with the ECL reagent (Santa Cruz Biotechnology).

[6] = system: AvBD9; test: AvBD9 gene expression in chicken jejunal explants (real-time RT-PCR); settings: 2 mM butyrate and/or 0.1 M lactose, 24 h
Description: A segment of chicken jejunum was harvested from 1- to 2-week-old broiler chickens, washed thoroughly in cold PBS containing 100 μg/ml of gentamicin, 100 U/ml penicillin, and 100 μg/ml streptomycin, and then cut into a series of 0.5-cm-long segments. Jejunal segments were placed individually in 6-well plates and cultured in 4 ml RPMI 1640 containing 10% FBS, 20 mM HEPES, 100 U/ml penicillin, 100 μg/ml streptomycin, and 100 μg/ml gentamicin. […] Jejunal segments were homogenized in RNAzol RT for RNA extraction.
as §3

SMILES: Oc1ccc(C=Cc2cc(O)cc(O)c2)cc1 [resveratrol]
- Effect on AvBD9 induction, compound alone [1]: modest effect

SMILES: O=C(O)c1cccnc1Nc1cccc(C(F)(F)F)c1 [niflumic acid]
- AvBD9 gene expression, maximum fold increase, compound alone [1]: ~14,000 fold

SMILES: O=C[C@H](O)[C@@H](O)[C@@H](O)[C@H](O)CO [galactose]
- Synergy with butyrate in AvBD9 induction [2]: clear synergy
- Induction of AvBD9 gene expression by sugars [2]: stimulated AvBD9 gene expression in a time-dependent manner

SMILES: C[C@H]1O[C@@H](n2cnc3c(N)ncnc32)C[C@@H]1O [DDA, 2′-5′-dideoxyadenosine]
- Effect of pathway inhibitor on butyrate-induced AvBD9 expression [1]: strikingly strong, dose-dependent increase

SMILES: CCCC(=O)OC/C=C/c1ccccc1 [trans-cinnamyl butyrate]
- Induction of AvBD9 gene expression ([2]; 24 h): dose-dependently induced

SMILES: CCCC(=O)Nc1ncnc2c1ncn2[C@@H]1O[C@@H]2COP(=O)(O)O[C@H]2[C@H]1OC(=O)CCC [dibutyryl cAMP, reference compound]
- Efficacy of AvBD9 induction compared with butyrate [2]: comparable efficacy to butyrate
- Induction of AvBD9 gene expression ([2]; 24 h): dose-dependently induced

SMILES: CC(C)C[C@@H](C=O)NC(=O)[C@H](CC(C)C)NC(=O)[C@H](CC(C)C)NC(=O)OCc1ccccc1 [MG132] (Cbz-Leu-Leu-Leu-aldehyde)
- Effect of pathway inhibitor on butyrate-induced AvBD9 expression [1]: nearly complete abolishment

SMILES: CS(=O)(=O)Nc1ccc([N+](=O)[O-])cc1Oc1ccccc1 [nimesulide]
- AvBD9 gene expression, maximum fold increase, compound alone [1]: approximately 70 fold

SMILES: CN(C)c1ccc(C(=O)NCCCCCC(=O)NO)cc1 [CAY10398, reference compound]
- Induction of AvBD9 gene expression ([2]; 24 h): dose-dependent stimulation

SMILES: OC[C@H]1O[C@H](O[C@H]2O[C@H](CO)[C@@H](O)[C@H](O)[C@H]2O)[C@H](O)[C@@H](O)[C@@H]1O [trehalose]
- Synergy with butyrate in AvBD9 induction [2]: clear synergy

SMILES: C=C(C)[C@@H](CC=C(C)C)C[C@@]12C[C@@H](CC=C(C)C)C(C)(C)[C@@](CC=C(C)C)(C(=O)C(C(=O)c3ccc(O)c(O)c3)=C1O)C2=O [garcinol]
- AvBD9 induction, peak fold increase, compound alone ([1]; garcinol without butyrate): approximately 7 fold

SMILES: Nc1ncnc2c1ncn2C1CCCO1 (centres unmarked) [SQ22536, reference compound]
- Effect of pathway inhibitor on lactose-induced AvBD9 expression [2]: no influence

SMILES: O=C(O)CCc1ccccc1 [hydrocinnamic acid, Hydrocinnamic acid]
- Induction of AvBD9 gene expression ([2]; 24 h): dose-dependently induced

SMILES: O=c1c(O)c(-c2ccc(O)c(O)c2)oc2cc(O)cc(O)c12 [quercetin]
- AvBD9 expression, fold increase ([1]; 40 μM quercetin alone, 24 h): approximately 6,500 fold
- Induction of AvBD9 (dose dependence) ([1]; quercetin alone, 24 h): dose-dependently induced
- Reduction of AvBD9 induction at 48 h relative to 24 h ([3]; 40 μM quercetin): 210 fold
- AvBD9 expression, fold increase at peak ([3]; 40 μM quercetin, 24 h): approximately 500 fold
- Concentration giving peak AvBD9 response ([3]; quercetin alone, 24 h): 40 µM
- Induction of AvBD9 gene expression (dose dependence) ([3]; quercetin alone, 24 h): dose-dependent induction

SMILES: Nc1ccc2ncnc(NCCc3ccc(Oc4ccccc4)cc3)c2c1 [QNZ, reference compound]
- Effect of pathway inhibitor on lactose-induced AvBD9 expression [2]: no influence

SMILES: C[S+]([O-])c1ccc(-c2nc(-c3ccncc3)c(-c3ccc(F)cc3)[nH]2)cc1 (centres unmarked) [SB203580, reference compound]
- Effect of pathway inhibitor on butyrate-induced AvBD9 expression [1]: substantial, but not complete reduction
- Effect of pathway inhibitor on lactose-induced AvBD9 expression [2]: no influence

SMILES: O=C(CO)[C@@H](O)[C@H](O)[C@H](O)CO [fructose]
- Induction of AvBD9 gene expression by sugars [2]: stimulated AvBD9 gene expression in a time-dependent manner

SMILES: O=C(CCCCCCC(=O)Nc1ccccc1)NO [SAHA, suberoylanilide hydroxamic acid, reference compound]
- Induction of AvBD9 gene expression ([2]; 24 h): dose-dependent stimulation

SMILES: S=C(S)N1CCCC1 [PDTC]
- Effect of pathway inhibitor on quercetin-mediated AvBD9 expression [4]: did not show much effect

SMILES: CCCCCCCCCCCCCCCc1cccc(O)c1C(=O)O [anacardic acid]
- Effect on AvBD9 induction, compound alone [1]: modest effect

SMILES: CCCC(CCC)C(=O)[O-].[Na+] [sodium valproate, reference compound]
- Induction of AvBD9 gene expression ([2]; 24 h): dose-dependent stimulation

SMILES: CCCC(=O)OCC(COC(=O)CCC)OC(=O)CCC [glyceryl tributyrate, Glyceryl tributyrate]
- Efficacy of AvBD9 induction compared with butyrate [2]: comparable efficacy to butyrate
- Induction of AvBD9 gene expression ([2]; 24 h): dose-dependently induced

SMILES: CCCC(=O)[O-].[Na+] [butyrate, Sodium butyrate]
- Histone 4 acetylation [5]: minimum histone 4 acetylation
- AvBD9 induction, peak fold ([2]; 2 mM butyrate alone, 24 h): approximately 1,750 fold
- AvBD9 induction, fold [6]: 100 fold

SMILES: COc1cccc(-c2cc(=O)c3ccccc3o2)c1N [PD98059, reference compound]
- Effect of pathway inhibitor on butyrate-induced AvBD9 expression [1]: strong synergistic AvBD9 induction
- Effect of pathway inhibitor on lactose-induced AvBD9 expression [2]: synergized substantially

SMILES: OC[C@H]1O[C@@H](O[C@H]2[C@H](O)[C@@H](O)C(O)O[C@@H]2CO)[C@H](O)[C@@H](O)[C@H]1O (some centres unmarked) [lactose]
- Histone 4 acetylation [5]: no impact
- AvBD9 induction, maximum fold ([2]; 0.2 M lactose alone, 6 h): 350 fold
- Induction of AvBD9 gene expression by sugars [2]: stimulated AvBD9 gene expression in a time-dependent manner
- AvBD9 induction, fold [6]: 15 fold

SMILES: CCCC(=O)OCc1ccccc1 [benzyl butyrate, Benzyl butyrate]
- Efficacy of AvBD9 induction compared with butyrate [2]: comparable efficacy to butyrate
- Induction of AvBD9 gene expression ([2]; 24 h): dose-dependently induced

SMILES: OC[C@@H](O)[C@@H](O)[C@H](O)[C@H](O)CO [mannitol]
- Synergy with butyrate in AvBD9 induction [2]: comparably synergy

SMILES: CC(/C=C/C(=O)NO)=C\[C@@H](C)C(=O)c1ccc(N(C)C)cc1 [trichistatin A, reference compound]
- Induction of AvBD9 gene expression ([2]; 24 h): dose-dependent stimulation
